Laboratory results from US8785483B2, “Methods for treating COPD” (The Board of Regents of the University of Texas System, priority 2010, dated 2014).

Legend:
[1] = system: STAT-6; assay: Western blot of STAT-6 phosphorylation in airway epithelial monolayer; format: cell-based, human; conditions: ALI monolayer, AR inhibitor 24 h prior to IL-13
Procedure: FIG. 7. AR inhibition prevents IL-13-induced phosphorylation of JAK-1, ERK1/2 and STAT-6 in airway epithelial monolayer. The ciliated monolayer of airway cells at ALI was treated with AR inhibitor for 24 h and stimulated with IL-13 for different time periods as indicated. At the end of incubation, cells were lysed and cell lysate was subjected to western blotting using antibodies against phosphorylated and nonphosphorylated JAK-1, ERK1/2 and STAT-6 to analyze the activation of these signaling proteins. A representative blot is shown (n=4). #p<0.001 vs Control; *p<0.01 and **p<0.001 vs IL-13. For air-liquid interface (ALI) culture, SAEC were seeded at 8.5×10^4 cells/12-mm-diameter PET transparent insert with […] pores (12-well millicell culture insert; Millipore) and pre-coated with rat tail collagen type-1 (Sigma-Aldrich). The cells were grown submerged in the differentiation medium as described earlier by Zhen et al. (Am J Respir Cell Mol Biol 36: 244-253, 2007). […] Protein levels were determined using Bradford reagent (Biorad, Hercules, Calif.). […] The blots were then washed, exposed to HRP-conjugated secondary antibodies (1:5,000 dilution) for 1 h, and the antigen-antibody complex was detected by enhanced chemiluminescence (Amersham Pharmacia Biotech, Piscataway, N.J., USA). […]

[2] = system: IL-13; assay: RWE-induced expression of IL-13 in mouse lung (quantitative RT-PCR); format: in vivo; conditions: RWE-sensitized and challenged mice, fidarestat 7 mg/kg body wt/day in drinking water, lungs 16 h after challenge
Procedure: FIG. 8. AR inhibition prevents RWE-induced expression of IL-13 in mouse lung. The mice were sensitized and challenged with PBS or RWE, without or with AR inhibitor and 16 h later lungs were harvested and total RNA was isolated (n=4). One microgram of total RNA from each sample was transcribed into first-strand cDNA and quantitative RT-PCR was conducted using IL-13 specific forward and reverse primers. The levels of RNA for the target sequences were determined by melting curve analysis. The values presented here are fold-change over the control. (**p<0.001). RWE, ragweed pollen extract; ARI, aldose reductase inhibitor. […]
The mice lungs were harvested 16 h after RWE-challenge and total RNA was isolated. From each sample, one microgram of total RNA was transcribed into first-strand cDNA and quantitative RT-PCR was conducted using IL-13 specific forward and reverse primers 5′[…] […] Data were collected and analyzed by ABI 7000 System equipment and software (Applied Biosystems, Foster City, Calif.). […] Values of expression in fold increase (ratio of control) were calculated using the formula for relative expression by the method of Delta Delta CT (ΔΔCT): F=2^−^ΔΔ^C, F=fold change (ratio of control), −ΔΔCT=(CT Target−CTHKG)^Timex−(CT Target-CT HKG)^Time 0. […]

## NC(=O)[C@@H]1C[C@]2(NC(=O)NC2=O)c2cc(F)ccc2O1 [fidarestat, (2S,4S)-2-aminoformyl-6-fluoro-spiro[chroman-4,4′-imidazolidine]-2′,5′-dione]
[1]
  IL-13-induced phosphorylation of STAT-6: decreased significantly
[2]
  RWE-induced increase of IL-13 expression in lung: prevented this increase
